Data from patent US11414418B2, “Compounds useful as immunomodulators” (Bristol-Myers Squibb Company, priority 2018, dated 2022).
pIC50: −log10 of the molar value.

Biological target: PD-1/PD-L1 interaction (PD-1-Ig / PD-L1-His) (Homo sapiens (Human), UniProt Q9NZQ7)
Assay: PD-1/PD-L1 Homogenous Time-Resolved Fluorescence (HTRF) binding assay
Details: PD-L1-His 10 nM final, PD-1-Ig 20 nM final
Source text: The ability of the compounds of formula (I) to bind to PD-L1 was investigated using a PD-1/PD-L1 Homogenous Time-Resolved Fluorescence (HTRF) binding assay.
1. Homogenous Time-Resolved Fluorescence (HTRF) Binding Assay.
The interaction of PD-1 and PD-L1 can be assessed using soluble, purified preparations of the extracellular domains of the two proteins. The PD-1 and PD-L1 protein extracellular domains were expressed as fusion proteins with detection tags, for PD-1, the tag was the Fc portion of Immunoglobulin (PD-1-Ig) and for PD-L1 it was the 6 histidine motif (PD-L1-His). All binding studies were performed in an HTRF assay buffer consisting of dPBS supplemented with 0.1% […] bovine serum albumin and 0.05% (v/v) Tween-20. For the h/PD-L1-His binding assay, inhibitors were pre-incubated with PD-L1-His (10 nM final) for 15 m in 4 μl of assay buffer, followed by addition of PD-1-Ig (20 nM final) in 1 μl of assay buffer and further incubation for 15 m. HTRF detection was achieved using europium crypate-labeled anti-Ig (1 nM final) and allophycocyanin (APC) labeled anti-His (20 nM final). Antibodies were diluted in HTRF detection buffer and 5 μl was dispensed on top of the binding reaction. The reaction mixture was allowed to equilibrate for 30 minutes and the resulting signal (665 nm/620 nm ratio) was obtained using an EnVision fluorometer. Additional binding assays were established between the human proteins PD-1-Ig/PD-L2-His (20 & 5 nM, respectively) and CD80-His/PD-L1-Ig (100 & 10 nM, respectively).
Recombinant Proteins: Human PD-1 (25-167) with a C-terminal human Fc domain of immunoglobulin G (Ig) epitope tag [hPD-1 (25-167)-3S-IG] and human PD-L1 (18-239) with a C-terminal His epitope tag [hPD-L1 (18-239)-TVMV-His] were expressed in HEK293T cells and purified sequentially by ProteinA affinity chromatography and size exclusion chromatography. Human PD-L2-His and CD80-His was obtained through commercial sources.

Chain of PD-1/PD-L1 interaction (PD-1-Ig / PD-L1-His) (Q9NZQ7 other isoform, or with tags, fused parts or gaps): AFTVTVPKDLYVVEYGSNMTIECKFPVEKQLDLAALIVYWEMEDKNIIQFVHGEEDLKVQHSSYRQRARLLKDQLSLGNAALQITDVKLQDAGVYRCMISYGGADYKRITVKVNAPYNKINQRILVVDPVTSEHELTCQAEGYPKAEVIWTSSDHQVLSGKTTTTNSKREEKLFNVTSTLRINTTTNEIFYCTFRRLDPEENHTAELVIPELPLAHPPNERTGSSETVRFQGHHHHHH

Row | pIC50 | SMILES
1 | < 5.60 | O=C(CCCN1CC[C@@H](OCc2ccccc2)C1)N1CCCC2(CCCN(C(=O)CCCN3CC[C@@H](OCc4ccccc4)C3)C2)C1 [Example 1001, 1,1′-(2,8-diazaspiro[5.5]undecane-2,8-diyl)bis(4-((R)-3-(benzyloxy)pyrrolidin-1-yl)butan-1-one)]
2 | 6.08 | O=C(CCCN1CC[C@@H](O)C1)N1CCCC2(CCCN(C(=O)CCCN3CC[C@@H](O)C3)C2)C1 [Example 1002, 1,1′-(2,8-diazaspiro[5.5]undecane-2,8-diyl)bis(4-((R)-3-hydroxypyrrolidin-1-yl)butan-1-one)]
3 | < 5.00 | C[C@@](CO)(NCc1cc(Cl)c(CCC(=O)N2CCCC3(CCCN(C(=O)CCCN4CC[C@@H](OCc5ccccc5)C4)C3)C2)cc1OCc1cncc(C(N)=O)c1)C(=O)O (stereo partly drawn) [Example 1003, (2S)-2-((4-(3-(8-(4-((R)-3-(benzyloxy)pyrrolidin-1-yl)butanoyl)-2,8-diazaspiro[5.5]undecan-2-yl)-3-oxopropyl)-2-((5-carbamoylpyridin-3-yl)methoxy)-5-chlorobenzyl)amino)-3-hydroxy-2-methylpropanoic acid]
4 | < 5.00 | C[C@@](CO)(NCc1cc(Cl)c(CCC(=O)N2CCCC3(CCCN(C(=O)CCCN4CC[C@@H](OCc5ccccc5)C4)C3)C2)cc1OCc1cncc(C#N)c1)C(=O)O (stereo partly drawn) [Example 1004, (2S)-2-((4-(3-(8-(4-((R)-3-(benzyloxy)pyrrolidin-1-yl)butanoyl)-2,8-diazaspiro[5.5]undecan-2-yl)-3-oxopropyl)-5-chloro-2-((5-cyanopyridin-3-yl)methoxy)benzyl)amino)-3-hydroxy-2-methylpropanoic acid]
5 | < 5.00 | COC(=O)c1cncc(COc2cc(CCC(=O)N3CCCC4(CCCN(C(=O)CCCN5CC[C@@H](OCc6ccccc6)C5)C4)C3)c(Cl)cc2CN[C@@](C)(CO)C(=O)O)c1 (stereo partly drawn) [Example 1005, (2S)-2-((4-(3-(8-(4-((R)-3-(benzyloxy)pyrrolidin-1-yl)butanoyl)-2,8-diazaspiro[5.5]undecan-2-yl)-3-oxopropyl)-5-chloro-2-((5-(methoxycarbonyl)pyridin-3-yl)methoxy)benzyl)amino)-3-hydroxy-2-methylpropanoic acid]
